# Results published in patent US5298521A, “1,5-diphenyl-3-pyrazolylalkyl-N-hydroxydithiocaramates, compositions and use” (Ortho Pharmaceutical Corporation, priority 1993, dated 1994).
# Key:
# [1] = target: T1, RBL-1 cell cyclooxygenase (Rattus norvegicus, UniProt Q63921); test: RBL-1 cell cyclooxygenase, cell homogenate supernatant (Procedure II); assay type: biochemical; settings: RBL-1 homogenate, 3 μM; read-out: PROC. II % INHIBITION CO
# T1 construct: the supernatant was saved as the source of enzymes; endogenous in cells; host or cells: RBL-1 rat basophilic leukemia cells, homogenate supernatant
# T1 sequence (Q63921 27-602): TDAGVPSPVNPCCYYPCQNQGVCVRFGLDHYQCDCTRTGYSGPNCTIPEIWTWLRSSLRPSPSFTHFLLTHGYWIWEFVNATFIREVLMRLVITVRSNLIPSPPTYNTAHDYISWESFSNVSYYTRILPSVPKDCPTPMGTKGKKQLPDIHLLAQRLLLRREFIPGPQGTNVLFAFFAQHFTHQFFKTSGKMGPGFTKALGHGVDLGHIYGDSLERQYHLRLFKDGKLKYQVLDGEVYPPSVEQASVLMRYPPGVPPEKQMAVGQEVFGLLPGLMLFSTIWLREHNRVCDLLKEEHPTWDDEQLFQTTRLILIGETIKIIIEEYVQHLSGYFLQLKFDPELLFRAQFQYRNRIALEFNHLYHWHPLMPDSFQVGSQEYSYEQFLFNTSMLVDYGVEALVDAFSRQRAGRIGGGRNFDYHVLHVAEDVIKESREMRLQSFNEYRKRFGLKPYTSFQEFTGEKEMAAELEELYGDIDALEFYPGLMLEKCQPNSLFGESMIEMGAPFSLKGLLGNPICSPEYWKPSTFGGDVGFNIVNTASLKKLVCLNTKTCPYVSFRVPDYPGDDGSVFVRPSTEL
# Protocol: (§1) RBL-1 cell 5-lipoxygenase and cyclooxygenase
# (§2) Rat basophilic leukemia cells (RBL-1; 5×10^7 viable cells/mL) were disrupted by homogenization on ice (four 20 sec bursts) with a Brinkman polytron. Complete cell breakage was verified microscopically. The homogenate was then centrifuged at 10,000×g for 48 minutes at 4° C. The pellet was discarded and the supernatant was saved as the source of enzymes. The supernatant was pre-incubated for five minutes at 37° C. in the presence of 2 mM of CaCl2 and compound or vehicle (1% DMSO). The conversion of AA into 5-LO products was initiated by adding 10 μL (50 μCi) of 1-^14 C-AA to each tube and incubated at 37° C. for 20 minutes. The reaction was stopped by adjusting the pH of each sample to 3 to 3.5 with 2M formic acid. Samples were extracted with three volumes of chloroform to isolate the products of 5-LO formed during the reaction. Fractions were dried under nitrogen, then resuspended in 40 μL of chloroform and spotted onto silica gel HL plates. The plates were developed in A-9 solvent. The dried plates were analyzed using a Bioscan Imaging TLC scanner to determine the percentage of radiolabelled AA converted to 5-HETE in each sample.
# [2] = target: T2, RBL-1 cell 5-lipoxygenase (Rattus norvegicus, UniProt P12527); test: RBL-1 cell 5-lipoxygenase, cell homogenate supernatant (Procedure II); assay type: biochemical; settings: RBL-1 homogenate, 3 μM; read-out: PROC. II % INHIBITION 5-LO
# T2 construct: the supernatant was saved as the source of enzymes; endogenous in cells; host or cells: RBL-1 rat basophilic leukemia cells, homogenate supernatant
# T2 sequence (P12527 1-673): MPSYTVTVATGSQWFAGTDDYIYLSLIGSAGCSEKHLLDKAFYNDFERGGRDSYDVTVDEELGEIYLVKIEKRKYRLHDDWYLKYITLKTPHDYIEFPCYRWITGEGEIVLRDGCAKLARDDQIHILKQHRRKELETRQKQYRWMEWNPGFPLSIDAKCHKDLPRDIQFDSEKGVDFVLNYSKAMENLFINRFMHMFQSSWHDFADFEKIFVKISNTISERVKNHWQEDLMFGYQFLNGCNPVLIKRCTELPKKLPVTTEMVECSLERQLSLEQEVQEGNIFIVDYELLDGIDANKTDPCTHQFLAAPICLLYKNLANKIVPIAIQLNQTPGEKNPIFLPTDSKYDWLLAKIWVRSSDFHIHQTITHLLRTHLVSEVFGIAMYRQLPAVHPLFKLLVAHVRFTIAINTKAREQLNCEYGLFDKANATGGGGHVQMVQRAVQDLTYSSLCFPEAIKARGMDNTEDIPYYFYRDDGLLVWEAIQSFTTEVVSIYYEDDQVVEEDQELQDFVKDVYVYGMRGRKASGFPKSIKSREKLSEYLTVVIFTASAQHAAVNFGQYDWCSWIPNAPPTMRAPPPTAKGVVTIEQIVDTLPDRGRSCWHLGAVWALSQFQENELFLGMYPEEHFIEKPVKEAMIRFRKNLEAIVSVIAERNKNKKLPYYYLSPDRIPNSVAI
# Protocol: as §1, §2
# CO in intact RBL-1 cells = test: CO inhibition in intact RBL-1 cells (Procedure III); assay type: cell-based, rat; settings: superscript = number of experiments, read-out: PROC. III IC50 CO
# Protocol: (§3) The ability to inhibit 5-LO and CO in intact RBL-1 cells was also evaluated. RBL-1 cells were maintained in culture in minimal essential medium (Bio*Whittaker, Walkersville, MD), containing 12.5% fetal calf serum, 10 mg/mL streptomycin, 10 I.U./mL penicillin G, […] gentamycin and 2 mM L-glutamine (Bio*Whittaker, Walkersville, MD). Cells were collected by centrifugation, washed once in HBSS, and resuspended at a concentration of 1×10^5 cells/mL. Cells were incubated in the presence of vehicle or drug then centrifuged at 800×g for 10 minutes at 4° C. The supernatant was removed by aspiration and the cells were resuspended in 0.5 mL of HBSS. The reaction was started by the addition of 20 μg/mL of calcium ionophore A-23187 (mixed calcium and magnesium salts, Calbiochem, La Jolla CA) and allowed to proceed for 15 minutes, then stopped by plunging the tubes into a slush ice bath. The conversion of AA to 5-LO products was initiated by the addition of 10 μL (50 uCi) of 1-^14 C-AA. Products were isolated by acidification and extraction, followed by thin layer chromatography analysis as described above. Radioactive areas corresponding to authentic 5-LO and CO products were quantitated by the Bioscan 2000 Imaging System.
# [3] = target: T3, 5-LO in intact RBL-1 cells (Rattus norvegicus, UniProt P12527); test: 5-LO inhibition in intact RBL-1 cells (Procedure III); assay type: cell-based; settings: read-out: PROC. III IC50 5-LO
# T3 construct: endogenous in cells; host or cells: intact RBL-1 cells
# T3 sequence (P12527 1-673): T2 sequence (P12527 1-673)
# Protocol: as §3
# [4] = target: T4, Sheep seminal vesicle cyclooxygenase (Ovis aries, UniProt P05979); test: Sheep seminal vesicle cyclooxygenase (Procedure I); assay type: biochemical; settings: read-out: PROC. I % INHIB CO
# T4 construct: Sheep seminal vesicle (SSV) cyclooxygenase (95% pure); purchased Biomol (Plymouth Meeting, Pa.); host or cells: sheep seminal vesicle
# T4 sequence (P05979 25-600): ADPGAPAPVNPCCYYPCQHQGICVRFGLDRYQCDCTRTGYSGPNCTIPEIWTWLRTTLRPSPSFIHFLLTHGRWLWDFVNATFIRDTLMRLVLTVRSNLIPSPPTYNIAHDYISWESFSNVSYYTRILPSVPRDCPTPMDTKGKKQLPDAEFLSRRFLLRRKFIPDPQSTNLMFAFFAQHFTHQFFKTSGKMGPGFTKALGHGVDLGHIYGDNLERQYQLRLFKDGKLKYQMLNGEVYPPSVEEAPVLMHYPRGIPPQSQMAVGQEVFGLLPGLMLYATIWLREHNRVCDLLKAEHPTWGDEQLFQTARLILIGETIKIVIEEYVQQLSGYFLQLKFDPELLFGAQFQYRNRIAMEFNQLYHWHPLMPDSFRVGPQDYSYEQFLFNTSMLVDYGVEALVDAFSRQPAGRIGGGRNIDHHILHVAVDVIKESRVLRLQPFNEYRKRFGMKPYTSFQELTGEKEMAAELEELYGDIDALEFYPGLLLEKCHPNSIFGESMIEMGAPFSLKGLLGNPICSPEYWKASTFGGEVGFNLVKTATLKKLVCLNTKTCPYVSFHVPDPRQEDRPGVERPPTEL
# Protocol: Sheep seminal vesicle cyclooxygenase Sheep seminal vesicle (SSV) cyclooxygenase (95% pure, prostaglandin endoperoxide synthase, EC 1.14.99.1 specific activity 24 units/mg protein) obtained as a lyophilized powder from Biomol (Plymouth Meeting, Pa.) was reconstituted at a concentration of 59 mg/mL in Hanks' Balanced Salt Solution (HBSS). The enzyme was divided into 200 μL aliquots, snap frozen with liquid N2, and stored at -70° C. unitl immediately prior to use. Measurements of CO activity were carried out in polypropylene tubes containing 495 μL of HBSS to which was added 5 μL of inhibitor or dimethylsulfoxide (DMSO; vehicle control) and 6 μL of SSV CO solution. The tubes were mixed on a vortex shaker, preincubated for 5 min at 37° C. prior to the initiation of the reaction. The reaction was started by the addition of [^14 C]-arachidonic acid (1-^14 C-AA, Amersham, Arlington Heights, Il) in 10 μL of methanol. Tubes were again vortexed and incubated in a water bath for 20 minutes after which the tubes were removed and the reaction stopped by acidification with the addition of 1 mL 2M formic acid. Lipophilic products were extracted with 3 mL chloroform and concentrated to dryness under N2. Each pellet was reconstituted with 40 μL of chloroform and spotted on a Whatman Silicon thin-layer chromatography plate and developed in a chromatography tank containing A-9 solvent (11:5:2:1 V:V:V:V, ethyl acetate:trimethylpentane:acetic acid:double distilled-H2 O). Radioactive cyclooxygenase products (prostaglandin D2, prostaglandin E2, etc.) were measured using a Bioscan System 200 Imaging Scanner. Inhibition of enzyme activity was calculated by comparing the areas under the curve produced in the presence or absence of test compound.
Compound,inhibition at 3 µM [1] [%],inhibition at 3 µM [2] [%],IC50 (CO in intact RBL-1 cells) [nM],IC50 [3] [nM],inhibition at 3 µM [4] [%]
"COc1ccc(-n2nc(CSC(=S)N(C)O)cc2-c2ccc(Cl)cc2)cc1 [1-A, 5-(4-chlorophenyl)-1-(4-methoxyphenyl)-3-pyrazolylmethyl-N-hydroxy-N-methyl dithiocarbamate]",100,85,230,2500,–
COc1ccc(-n2nc(CSC(=S)N(C)O)cc2-c2ccc(C)cc2)cc1 [1-F],100,83,60,2400,–

# Other lines, results leading:
inhibition at 3 µM [1] [%],inhibition at 3 µM [2] [%],IC50 (CO in intact RBL-1 cells) [nM],IC50 [3] [nM],inhibition at 3 µM [4] [%],Compound
0,82,–,–,0,COc1ccc(-n2nc(CSC(=S)N(O)C(C)C)c(Cl)c2-c2ccc(C)cc2)cc1 [1-I]
52,83,–,–,36,COc1ccc(-n2nc(CSC(=S)N(C)O)c(Br)c2-c2ccc(C)cc2)cc1 [1-J]
0,87,–,–,0,COc1ccc(-n2nc(CSC(=S)N(O)C(C)C)c(Br)c2-c2ccc(C)cc2)cc1 [1-K]
